In the assay the target is catalytic subunit of the cAMP-dependent protein kinase A (PKA-C) (Mus musculus, UniProt P05132). Kind of assay: isothermal titration calorimetry. Format: binding.

One may read the Kd as the free concentration of one partner at which half of the binding sites on the other are occupied at equilibrium, for simple one-to-one binding. As for `Nc1ncnc2c1ncn2[C@@H]1O[C@H](COP(=O)(O)O)[C@@H](O)[C@H]1O` [AMP], the Kd was ~250 µM.
